Assays:
Assay in all cases: relative viability (nuclei count vs DMSO), 5 days (fraction); higher = more cells survive
[1] = compound: CO[C@H]1C[C@@H]2CC[C@@H](C)[C@@](O)(O2)C(=O)C(=O)N2CCCC[C@H]2C(=O)O[C@H]([C@H](C)C[C@@H]2CC[C@@H](OCCO)[C@H](OC)C2)CC(=O)[C@H](C)/C=C(\C)[C@@H](O)[C@@H](OC)C(=O)[C@H](C)C[C@H](C)/C=C/C=C/C=C/1C [Everolimus]
Procedure, shortened: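 Lung cancer cell lines in 1536-well plates were kept overnight at 37 °C, then pinned with five library-drug doses (not always all listed) spaced by √10 on vehicle-anchored plates. After 5 days without medium change, cells were fixed, permeabilised and Hoechst-stained in one step, imaged at 4×, and nuclei were counted with MetaXpress. Viability is treated-well nuclei divided by vehicle-well nuclei, taken as the median over plates. Plates passed only with control CV below 25% and at least one doubling.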

[2] = compound: CO[C@H]1C[C@@H]2CC[C@@H](C)[C@@](O)(O2)C(=O)C(=O)N2CCCC[C@H]2C(=O)O[C@H]([C@H](C)C[C@@H]2CC[C@@H](OCCO)[C@H](OC)C2)CC(=O)[C@H](C)/C=C(\C)[C@@H](O)[C@@H](OC)C(=O)[C@H](C)C[C@H](C)/C=C/C=C/C=C/1C [Everolimus] + COc1cc2c(Oc3ccc(NC(=O)C4(C(=O)Nc5ccc(F)cc5)CC4)cc3F)ccnc2cc1OCCCN1CCOCC1 [Foretinib] (partner 0.25 µM)
Procedure, shortened: (§1)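 Lung cancer cell lines were seeded in 1536-well plates and dosed by pin tool the next day, with either a single drug or a fixed anchor-drug dose combined with five library-drug doses (not always all listed) spaced in √10 steps. Five days later, one step fixed the cells and stained their nuclei (final 0.05% Triton X-100, 1% formaldehyde, 1 ug/ml Hoechst), and nuclei were counted on 4× images. Relative viability is the nuclei count in treated wells divided by the count in vehicle wells, and each value is the median of duplicate plates.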

[3] = compound: CO[C@H]1C[C@@H]2CC[C@@H](C)[C@@](O)(O2)C(=O)C(=O)N2CCCC[C@H]2C(=O)O[C@H]([C@H](C)C[C@@H]2CC[C@@H](OCCO)[C@H](OC)C2)CC(=O)[C@H](C)/C=C(\C)[C@@H](O)[C@@H](OC)C(=O)[C@H](C)C[C@H](C)/C=C/C=C/C=C/1C [Everolimus] + CC(=O)c1c(C)c2cnc(Nc3ccc(N4CCNCC4)cn3)nc2n(C2CCCC2)c1=O [Palbociclib] (partner 0.5 µM)
Procedure, shortened: as §1

[4] = compound: CO[C@H]1C[C@@H]2CC[C@@H](C)[C@@](O)(O2)C(=O)C(=O)N2CCCC[C@H]2C(=O)O[C@H]([C@H](C)C[C@@H]2CC[C@@H](OCCO)[C@H](OC)C2)CC(=O)[C@H](C)/C=C(\C)[C@@H](O)[C@@H](OC)C(=O)[C@H](C)C[C@H](C)/C=C/C=C/C=C/1C [Everolimus] + COc1cccc2cc(-c3nc([C@H]4CC[C@H](C(=O)O)CC4)n4ncnc(N)c34)[nH]c12 [OSI-027] (partner 0.5 µM)
Procedure, shortened: as §1

NCI-H2009
relative viability ([1]; 0.01 µM): 0.769
relative viability ([1]; 0.03162 µM): 0.867
relative viability ([1]; 0.1 µM): 0.705
relative viability ([1]; 0.3162 µM): 0.791
relative viability ([1]; 1 µM): 0.841
relative viability ([2]; first compound 0.01 µM): 0.961
relative viability ([2]; first compound 0.03162 µM): 1.04
relative viability ([2]; first compound 0.1 µM): 0.826
relative viability ([2]; first compound 0.3162 µM): 1.04
relative viability ([2]; first compound 1 µM): 0.936
relative viability ([3]; first compound 0.01 µM): 0.105
relative viability ([3]; first compound 0.03162 µM): 0.109
relative viability ([3]; first compound 0.1 µM): 0.103
relative viability ([3]; first compound 0.3162 µM): 0.127
relative viability ([3]; first compound 1 µM): 0.108
relative viability ([4]; first compound 0.01 µM): 0.34
relative viability ([4]; first compound 0.03162 µM): 0.344
relative viability ([4]; first compound 0.1 µM): 0.424
relative viability ([4]; first compound 0.3162 µM): 0.374
relative viability ([4]; first compound 1 µM): 0.397

NCI-H2023
relative viability ([1]; 0.01 µM): 0.545
relative viability ([1]; 0.03162 µM): 0.501
relative viability ([1]; 0.1 µM): 0.458
relative viability ([1]; 0.3162 µM): 0.457
relative viability ([1]; 1 µM): 0.378
relative viability ([2]; first compound 0.01 µM): 0.503
relative viability ([2]; first compound 0.03162 µM): 0.404
relative viability ([2]; first compound 0.1 µM): 0.424
relative viability ([2]; first compound 0.3162 µM): 0.358
relative viability ([2]; first compound 1 µM): 0.376
relative viability ([3]; first compound 0.01 µM): 0.176
relative viability ([3]; first compound 0.03162 µM): 0.139
relative viability ([3]; first compound 0.1 µM): 0.151
relative viability ([3]; first compound 0.3162 µM): 0.129
relative viability ([3]; first compound 1 µM): 0.129
relative viability ([4]; first compound 0.01 µM): 0.197
relative viability ([4]; first compound 0.03162 µM): 0.25
relative viability ([4]; first compound 0.1 µM): 0.178
relative viability ([4]; first compound 0.3162 µM): 0.153
relative viability ([4]; first compound 1 µM): 0.158

NCI-H2085
relative viability ([1]; 0.01 µM): 0.848
relative viability ([1]; 0.03162 µM): 0.865
relative viability ([1]; 0.1 µM): 0.692
relative viability ([1]; 0.3162 µM): 0.735
relative viability ([1]; 1 µM): 0.689
relative viability ([2]; first compound 0.01 µM): 0.812
relative viability ([2]; first compound 0.03162 µM): 0.584
relative viability ([2]; first compound 0.1 µM): 0.617
relative viability ([2]; first compound 0.3162 µM): 0.777
relative viability ([2]; first compound 1 µM): 0.695
relative viability ([3]; first compound 0.01 µM): 0.413
relative viability ([3]; first compound 0.03162 µM): 0.362
relative viability ([3]; first compound 0.1 µM): 0.347
relative viability ([3]; first compound 0.3162 µM): 0.335
relative viability ([3]; first compound 1 µM): 0.284
relative viability ([4]; first compound 0.01 µM): 0.457
relative viability ([4]; first compound 0.03162 µM): 0.454
relative viability ([4]; first compound 0.1 µM): 0.257
relative viability ([4]; first compound 0.3162 µM): 0.476
relative viability ([4]; first compound 1 µM): 0.438

NCI-H2087
relative viability ([1]; 0.01 µM): 0.814
relative viability ([1]; 0.03162 µM): 0.903
relative viability ([1]; 0.1 µM): 0.759
relative viability ([1]; 0.3162 µM): 0.772
relative viability ([1]; 1 µM): 0.966
relative viability ([2]; first compound 0.01 µM): 0.704
relative viability ([2]; first compound 0.03162 µM): 0.662
relative viability ([2]; first compound 0.1 µM): 0.739
relative viability ([2]; first compound 0.3162 µM): 0.875
relative viability ([2]; first compound 1 µM): 0.713
relative viability ([3]; first compound 0.01 µM): 0.235
relative viability ([3]; first compound 0.03162 µM): 0.195
relative viability ([3]; first compound 0.1 µM): 0.163
relative viability ([3]; first compound 0.3162 µM): 0.217
relative viability ([3]; first compound 1 µM): 0.245
relative viability ([4]; first compound 0.01 µM): 0.356
relative viability ([4]; first compound 0.03162 µM): 0.327
relative viability ([4]; first compound 0.1 µM): 0.388
relative viability ([4]; first compound 0.3162 µM): 0.49
relative viability ([4]; first compound 1 µM): 0.233

NCI-H2126
relative viability ([1]; 0.01 µM): 0.681
relative viability ([1]; 0.03162 µM): 0.615
relative viability ([1]; 0.1 µM): 0.617
relative viability ([1]; 0.3162 µM): 0.606
relative viability ([1]; 1 µM): 0.594
relative viability ([2]; first compound 0.01 µM): 0.97
relative viability ([2]; first compound 0.03162 µM): 0.925
relative viability ([2]; first compound 0.1 µM): 0.892
relative viability ([2]; first compound 0.3162 µM): 0.772
relative viability ([2]; first compound 1 µM): 0.73
relative viability ([3]; first compound 0.01 µM): 0.384
relative viability ([3]; first compound 0.03162 µM): 0.314
relative viability ([3]; first compound 0.1 µM): 0.325
relative viability ([3]; first compound 0.3162 µM): 0.338
relative viability ([3]; first compound 1 µM): 0.345
relative viability ([4]; first compound 0.01 µM): 0.528
relative viability ([4]; first compound 0.03162 µM): 0.431
relative viability ([4]; first compound 0.1 µM): 0.414
relative viability ([4]; first compound 0.3162 µM): 0.475
relative viability ([4]; first compound 1 µM): 0.426

NCI-H2170
relative viability ([1]; 0.01 µM): 0.459
relative viability ([1]; 0.03162 µM): 0.45
relative viability ([1]; 0.1 µM): 0.428
relative viability ([1]; 0.3162 µM): 0.459
relative viability ([1]; 1 µM): 0.464
relative viability ([2]; first compound 0.01 µM): 0.635
relative viability ([2]; first compound 0.03162 µM): 0.641
relative viability ([2]; first compound 0.1 µM): 0.654
relative viability ([2]; first compound 0.3162 µM): 0.587
relative viability ([2]; first compound 1 µM): 0.614
relative viability ([3]; first compound 0.01 µM): 0.195
relative viability ([3]; first compound 0.03162 µM): 0.187
relative viability ([3]; first compound 0.1 µM): 0.162
relative viability ([3]; first compound 0.3162 µM): 0.16
relative viability ([3]; first compound 1 µM): 0.186
relative viability ([4]; first compound 0.01 µM): 0.464
relative viability ([4]; first compound 0.03162 µM): 0.338
relative viability ([4]; first compound 0.1 µM): 0.481
relative viability ([4]; first compound 0.3162 µM): 0.422
relative viability ([4]; first compound 1 µM): 0.421

NCI-H2228
relative viability ([1]; 0.01 µM): 0.706
relative viability ([1]; 0.03162 µM): 0.593
relative viability ([1]; 0.1 µM): 0.51
relative viability ([1]; 0.3162 µM): 0.533
relative viability ([1]; 1 µM): 0.582
relative viability ([2]; first compound 0.01 µM): 0.603
relative viability ([2]; first compound 0.03162 µM): 0.586
relative viability ([2]; first compound 0.1 µM): 0.575
relative viability ([2]; first compound 0.3162 µM): 0.413
relative viability ([2]; first compound 1 µM): 0.556
relative viability ([3]; first compound 0.01 µM): 0.597
relative viability ([3]; first compound 0.03162 µM): 0.403
relative viability ([3]; first compound 0.1 µM): 0.337
relative viability ([3]; first compound 0.3162 µM): 0.408
relative viability ([3]; first compound 1 µM): 0.339
relative viability ([4]; first compound 0.01 µM): 0.23
relative viability ([4]; first compound 0.03162 µM): 0.295
relative viability ([4]; first compound 0.1 µM): 0.237
relative viability ([4]; first compound 0.3162 µM): 0.21
relative viability ([4]; first compound 1 µM): 0.265

NCI-H2342
relative viability ([1]; 0.01 µM): 0.569
relative viability ([1]; 0.03162 µM): 0.512
relative viability ([1]; 0.1 µM): 0.531
relative viability ([1]; 0.3162 µM): 0.667
relative viability ([1]; 1 µM): 0.641
relative viability ([2]; first compound 0.01 µM): 0.924
relative viability ([2]; first compound 0.03162 µM): 0.654
relative viability ([2]; first compound 0.1 µM): 0.551
relative viability ([2]; first compound 0.3162 µM): 0.618
relative viability ([2]; first compound 1 µM): 0.681
relative viability ([3]; first compound 0.01 µM): 0.48
relative viability ([3]; first compound 0.03162 µM): 0.407
relative viability ([3]; first compound 0.1 µM): 0.493
relative viability ([3]; first compound 0.3162 µM): 0.44
relative viability ([3]; first compound 1 µM): 0.463
relative viability ([4]; first compound 0.01 µM): 0.501
relative viability ([4]; first compound 0.03162 µM): 0.456
relative viability ([4]; first compound 0.1 µM): 0.431
relative viability ([4]; first compound 0.3162 µM): 0.515
relative viability ([4]; first compound 1 µM): 0.547

NCI-H2347
relative viability ([1]; 0.01 µM): 0.928
relative viability ([1]; 0.03162 µM): 0.95
relative viability ([1]; 0.1 µM): 0.795
relative viability ([1]; 0.3162 µM): 0.887
relative viability ([1]; 1 µM): 0.75
relative viability ([2]; first compound 0.01 µM): 0.855
relative viability ([2]; first compound 0.03162 µM): 0.499
relative viability ([2]; first compound 0.1 µM): 0.511
relative viability ([2]; first compound 0.3162 µM): 0.684
relative viability ([2]; first compound 1 µM): 0.552
relative viability ([3]; first compound 0.01 µM): 0.386
relative viability ([3]; first compound 0.03162 µM): 0.403
relative viability ([3]; first compound 0.1 µM): 0.401
relative viability ([3]; first compound 0.3162 µM): 0.424
relative viability ([3]; first compound 1 µM): 0.373
relative viability ([4]; first compound 0.01 µM): 0.382
relative viability ([4]; first compound 0.03162 µM): 0.253
relative viability ([4]; first compound 0.1 µM): 0.326
relative viability ([4]; first compound 0.3162 µM): 0.501
relative viability ([4]; first compound 1 µM): 0.34
